# Reference: patent publication US9278982B2, “Targeting human thymidylate kinase induces DNA repair toxicity in malignant tumor cells” (NATIONAL YANG-MING UNIVERSITY, priority 2010, dated 2016)
# Key:
# MCF-10A = assay: Doxorubicin sensitization, MTS viability assay; assay type: cell-based, human; conditions: doxorubicin sensitivity, YMU1 vs vehicle
# Protocol: (§1) FIG. 16. In vitro and in vivo effect of YMU1 on doxorubicin sensitization. (A) A panel of cell lines were pre-treated with vehicle, YMU1 (compound 21), D6 (ethyl 4-(2-chloroacetyl)piperazine-1-carboxylate) or D7 (compound 28) for 3 days and were exposed to different concentration of doxorubicin for 4 h. […] The enhancement (fold) of doxorubicin sensitivity in each cell line was calculated. Data represent mean±s.d., n=3; each experiment was quadruplex. Inset indicates the IC50 value of doxorubicin in various cell lines. […] Following overnight culture, cells were refreshed with growth medium. After 14 days of culture, colonies were fixed, stained by crystal violet and counted. (C) HCT-116 p53^−/− cells were subcutaneously implanted in the right flank of Balb/c nude mice (each experimental group n=8). Arrow indicated the time of stopping drug treatment. The tumor volume was estimated as described in Methods of the Invention section. (D) After 2 weeks recovered from treatment, mice were sacrificed for tumor weight measurement. Data represent mean±s.e.m; **, P<0.01 by a two-tailed Student's t-test. (E) Ki 67 proliferation marker staining of tumor shown in left panel. Scale bar, 50 μm. (F) Model of doxorubicin sensitization by YMU1 in malignant cancer cells. Both R2/R1 and TMPK are recruited to the site of doxorubicin-induced double-strand breaks, where dATP, dGTP, dCTP, dTTP and dUTP are site-specific synthesized. Inhibition of TMPK decreases dTTP formation at DNA damage sites, causing futile DNA repair due to dUTP incorporation.
# (§2) Next, various human cancer cell lines were treated with YMU1, D6 or D7 for 72 h to test the potential of TMPK inhibitor in doxorubicin sensitization. After exposure to different concentration of doxorubicin for 4 h, cells were refreshed for viability analysis after 2 days and the IC50 value for doxorubicin in each of the cell lines was determined (FIG. 16A and Table 2).
# (§3) Cells plated into a 96-well plate (10^3 cells/well) were treated and cell viability was measured by MTS assay (Promega) (Cory et al., 1991). An annexin V-fluorescein isothiocyanate (FITC) apoptosis kit (Calbiochem) was used to detect apoptosis. The cell cycle analysis was performed by staining cells with propidium iodide (PI) for fluorescence-activated cell sorter (FACS) analysis with CellQuest software.
# MDA-MB231 = assay: Doxorubicin sensitization, MTS viability assay; assay type: cell-based, human
# Protocol: as §1, §2, §3
# HCC1037 = assay: Doxorubicin sensitization, MTS viability assay; assay type: cell-based, human; conditions: doxorubicin sensitivity, YMU1 vs vehicle
# Protocol: as §1, §2, §3
# HREC = assay: Doxorubicin sensitization, MTS viability assay; assay type: cell-based, human; conditions: doxorubicin sensitivity, YMU1 vs vehicle
# Protocol: as §1, §2, §3
# Capan1 = assay: Doxorubicin sensitization, MTS viability assay; assay type: cell-based, human; conditions: doxorubicin sensitivity, YMU1 vs vehicle
# Protocol: as §1, §2, §3
# HCT-116p53−/− = assay: Doxorubicin sensitization, MTS viability assay; assay type: cell-based, human; conditions: doxorubicin sensitivity, YMU1 vs vehicle
# Protocol: as §1, §2, §3
# SaoS2 = assay: Doxorubicin sensitization, MTS viability assay; assay type: cell-based, human; conditions: doxorubicin sensitivity, YMU1 vs vehicle
# Protocol: as §1, §2, §3
# U2OS = assay: Doxorubicin sensitization, MTS viability assay; assay type: cell-based, human; conditions: doxorubicin sensitivity, YMU1 vs vehicle
# Protocol: as §1, §2, §3
# IMR-90 = assay: Doxorubicin sensitization, MTS viability assay; assay type: cell-based, human; conditions: doxorubicin sensitivity, YMU1 vs vehicle
# Protocol: as §1, §2, §3
# H184B5F5/M10 = assay: Doxorubicin sensitization, MTS viability assay; assay type: cell-based, human; conditions: doxorubicin sensitivity, YMU1 vs vehicle
# Protocol: as §1, §2, §3
# HT-29 = assay: Doxorubicin sensitization, MTS viability assay; assay type: cell-based, human; conditions: doxorubicin sensitivity, YMU1 vs vehicle
# Protocol: as §1, §2, §3
# H1299 = assay: Doxorubicin sensitization, MTS viability assay; assay type: cell-based, human; conditions: doxorubicin sensitivity, YMU1 vs vehicle
# Protocol: as §1, §2, §3
# HMEC = assay: Doxorubicin sensitization, MTS viability assay; assay type: cell-based, human; conditions: doxorubicin sensitivity, YMU1 vs vehicle
# Protocol: as §1, §2, §3
# MDA-MB468 = assay: Doxorubicin sensitization, MTS viability assay; assay type: cell-based, human; conditions: doxorubicin sensitivity, YMU1 vs vehicle
# Protocol: as §1, §2, §3
# dUTPase = target: T1, dUTPase (Homo sapiens, UniProt P33316); assay: dUTPase activity assay; assay type: biochemical; conditions: 0.1 μg purified GST-dUTPase, 10 min incubation with YMU1
# T1 construct: made in house; host or cells: E. coli JM109 (pGEX-2T-dUTPase (WT))
# T1 sequence (P33316 1-164 isoform P33316-2): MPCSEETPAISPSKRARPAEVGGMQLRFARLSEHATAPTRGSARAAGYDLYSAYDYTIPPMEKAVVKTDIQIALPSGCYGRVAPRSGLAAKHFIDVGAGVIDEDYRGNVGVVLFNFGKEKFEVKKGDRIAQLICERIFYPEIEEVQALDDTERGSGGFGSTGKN
# Protocol: FIG. 19. No effect of YMU1 on dUTPase activity. 0.1 μg of purified GST-dUTPase protein was incubated with the indicated concentration of YMU1 for 10 min prior to action using dUTPase activity analysis.
# For detecting dUTPase activity, the EnzChek Pyrophosphate Assay kit (Invitrogen) was used for measuring the dUTPase activity following the manufacturer's instruction. […] Reaction mixtures were incubated at 37° C. for 3 minutes. Samples (15 μl each) were added to the reaction mixtures [715 μl dH2O, 50 μl 20× reaction buffer, 200 μl MESG substrate, 1 U purine nucleoside phosphorylase, 0.03 U inorganic pyrophosphatase] and incubated at 22° C. for 45 minutes. The absorbance at 360 nm was measured using an ELISA plate reader.
# [1] = target: T2, purified human thymidylate kinase (Homo sapiens, UniProt P23919); assay: NADH-coupled TMPK assay (kinetic parameters); assay type: biochemical; conditions: for Ki: 10 min pre-incubation, average of three YMU1 concentrations
# T2 construct: GST (N, cleaved yes); made in house; host or cells: E. coli JM109 (pGEX-2T-hTMPK)
# T2 sequence (P23919 1-212): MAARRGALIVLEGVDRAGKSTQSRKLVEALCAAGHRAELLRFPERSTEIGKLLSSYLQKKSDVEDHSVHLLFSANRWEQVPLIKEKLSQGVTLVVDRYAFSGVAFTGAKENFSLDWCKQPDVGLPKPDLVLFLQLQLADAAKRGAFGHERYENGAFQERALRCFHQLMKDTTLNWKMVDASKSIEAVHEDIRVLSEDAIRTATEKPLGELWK
# Protocol: The inhibitory mode of YMU1 was determined by pre-incubating different concentrations of YMU1 with purified hTMPK protein and measuring initial velocity using the conventional TMPK assay.
# All reactions were performed in 96-well plates in an assay volume of 100 μl. The activity of hTMPK was measured at 25° C. using a modified NADH coupled colorimetric assay as described (Agarwal et al., 1978; Miyata et al., 2003; Ostermann et al., 2003), in which purified hTMPK was added to the buffer containing 100 mM Tris-HCl, pH 7.5, 100 mM KCl, 10 mM MgCl2, 0.5 mM phosphoenol pyruvate, 0.25 mM NADH, 5 units of lactate dehydrogenase, 4 units of pyruvate kinase, 1 mM ATP, and 200 μM dTMP. The change of NADH was measured by reading the absorbance at 340 nm. One unit of TMPK activity is defined as the conversion of 1 μmole of TMP to TDP per minute.
smiles,measurement,setting,value
"CCOC(=O)N1CCN(C(=O)Cn2sc3nc(C)cc(C)c3c2=O)CC1 [compound 21, Ethyl 4-(2-(4,6-dimethyl-3-oxoisothiazolo[5,4-b]pyridin-2(3H)-yl)acetyl) piperazine-1-carboxylate]",Enhancement fold,MCF-10A,1.2 fold
same,Enhancement fold,"MDA-MB231; MDA-MB231, doxorubicin sensitivity, YMU1 vs vehicle",31.0 fold
same,enhancement on doxorubicin sensitization,"MDA-MB231; MDA-MB231 cell treatment, compound at 2 μM",30 fold
same,Enhancement fold,HCC1037,0.8 fold
same,Enhancement fold,HREC,1.0 fold
same,Enhancement fold,Capan1,1.0 fold
same,Enhancement fold,HCT-116p53−/−,6.8 fold
same,Enhancement fold,SaoS2,35.1 fold
same,Enhancement fold,U2OS,4.0 fold
same,Enhancement fold,IMR-90,1.0 fold
same,Enhancement fold,H184B5F5/M10,1.7 fold
same,Enhancement fold,HT-29,3.4 fold
same,Enhancement fold,H1299,12.2 fold
same,Enhancement fold,HMEC,1.0 fold
same,Enhancement fold,MDA-MB468,27.8 fold
same,inhibition of dUTPase,dUTPase,unable to inhibit dUTPase
same,Ki,"[1]; ATP 1 mM, TMP varied 2~200 μM",220 ± 30 nM
same,Vmax,"[1]; ATP varied, YMU1 0.25 μM",212.0 ± 10.3 nmol/min/mg
same,Vmax,"[1]; ATP varied, YMU1 0.5 μM",94.8 ± 6.9 nmol/min/mg
same,Vmax,"[1]; ATP varied, YMU1 1 μM",55.7 ± 1.3 nmol/min/mg
same,Ki,"[1]; TMP 200 μM, ATP varied 5~1000 μM",180 ± 60 nM
same,Vmax,"[1]; TMP varied, YMU1 0.125 μM",258.9 ± 12.4 nmol/min/mg
same,Vmax,"[1]; TMP varied, YMU1 0.25 μM",180.6 ± 11.8 nmol/min/mg
same,Vmax,"[1]; TMP varied, YMU1 0.5 μM",91.8 ± 6.4 nmol/min/mg
